We go through 2 compounds from patent US10835548B2, “Metronomic oral gemcitabine for cancer therapy” (priority 2016, dated 2020).

Series [1] relates to HuCCT1 cholangiocarcinoma xenografts. Kind of series: Xenografted mouse model of human cholangiocarcinoma cell line HuCCT1. The series is classed as in vivo, BALB/c nude mice. To be noted: Group 1: GEM 60 mg/kg i.p. Q3D×4. As to the method:
Example 3 is a study in which the effects of GEM upon mice into which cells of human cholangiocarcinoma cell line HuCCT1 were xenografted. The xenografted mice were then treated with one of five treatment regimens and the results observed over the study period of 90 days.
To prepare the xenografted mice used in the study, 1×10^6 HuCCT1 human cholangiocarcinoma cells were transplanted subcutaneously on the right flank of 6 week old male BALB/c nude mice. Tumor growth was observed once a week and the tumor volume was measured as L×W^2/2 by caliper. Tumor development in the xenografted mice was then observed, and 40 such mice were selected for inclusion in the study when their tumor volume reached about 124 cubic millimeters. The mice were divided into 5 groups of 8 mice each for the study. The day on which mice were first dosed was designated “Day 0” of the study, and the study continued for 90 days.
Mice of Group 1 were intraperitoneally injected with 60 mg/kg of GEM on days 0, 3, 6, and 9 of the study (i.e., Q3D×4) and were not further treated thereafter.
Mice of Group 2 were intraperitoneally injected with 60 mg/kg of GEM on days 0, 3, 6, and 9 of the study (i.e., Q3D×4). Beginning on day 13 of the study, the mice were orally administered 10 mg/kg GEM in the GEMORAL composition (hereinafter “10 mg/kg GEMORAL”) every other day (i.e., Q2D×40) through the end of the study.
Mice of Group 3 were intraperitoneally injected with 60 mg/kg of GEM on days 0, 3, 6, and 9 of the study (i.e., Q3D×4). Also beginning on day 1 of the study, the mice were orally administered 10 mg/kg GEMORAL every other day (i.e., Q2D×46) through the end of the study.
Mice of Group 4 were orally administered 10 mg/kg GEMORAL every other day (i.e., Q2D×46), beginning on day 1 of the study and extending through the end of the study.
Mice of Group 5 were controls and were not administered GEM. They were intraperitoneally injected with saline on days 0, 3, 6, and 9 of the study (i.e., Q3D×4). Beginning on day 13 of the study, the mice were orally administered distilled, deionized water every other day (i.e., Q2D×40) through the end of the study.
The study was continued until day 90 and body weight losses among the mice of the various Groups were observed. In Group 3, all mice lost over 20% body weight by day 12.
Values reflecting anti-tumor responses, as compared with vehicle treatment (T/C %) on different study days are indicated in Table 2. […] It is noteworthy that by day 12 the cumulative dose of GEM for Group 4 was only about 25% that of Group 1.
For orientation: A xenograft is tissue or cells of one species grown in another, often human tumour cells in immunodeficient mice.

The nature of series [2]: MTD of GEM intravenous infusion regime in human cancer patients (Fossella et al.). Type of series: in vivo. As to the method: For GEM, others have determined MTD values for human cancer patients. For example, Fossella et al. (1997, J. Clin. Oncol. 15:310-316) estimated an MTD of 2,400 mg/m^2/week for a GEM intravenous infusion regime regime (2,400 mg/m^2 corresponding to 3,893 mg/60 kg for a human patient, equal to 64.988 mg/kg). Labeling for a commercial GEM product, marketed under the brand name GEMZAR (Eli Lilly and Co.) recommends an intravenous dosage of 1,000 or 1,250 mg/m^2. In details, GEMZAR dosage administration is conducted at a dose of 1,000 mg/m^2, corresponding to 1,622 mg/60 kg for a human patient, equal to 27.03 mg/kg, administered on Days 1 and 8 or Days 1, 8, and 15 of a 21-day cycle, or at a dose of 1,250 mg/m^2, corresponding to 2,027 mg/60 kg for a human patient, equal to 33.878 mg/kg, administered on Days 1, 8, and 15 of a 28-day cycle.

Series [3] has as its system patient-derived human cholangiocarcinoma xenografts. Kind of series: Xenografted mouse model of patient-derived human cholangiocarcinoma. The series is classed as in vivo. To be noted: Group 1: GEM 60 mg/kg i.p. Q3D×4. The protocol: This example describes a study in which the effects of gemcitabine upon mice into which portions of a human patient-derived cholangiocarcinoma were xenografted. The xenografted mice were then treated with one of five treatment regimens and the results observed.
To prepare the xenografted mice used in the study, primary human cholangiocarcinoma fragments obtained from human patients were injected into “stock” male BALB/c nude mice. Subsequently, tumor fragments (roughly 2-3 millimeters in diameter) were harvested from the “stock” mice and inoculated subcutaneously into the right flank of other male BALB/c nude mice. Tumor development in the inoculated mice was then observed, and 40 such mice were selected for inclusion in the study when their tumor volume reached about 180 cubic millimeters (volume was assessed by multiplying tumor length by ½ (tumor width squared) (i.e., L×W^2/2), length and width being measured using a caliper). The mice were divided into 5 groups of 8 mice each for the study, all mice in each group having tumors of approximately equal size. The day on which mice were first dosed was designated “Day 1” of the study, and the study continued for 76 days. The mice were divided into Groups 1, 2, 3, 4, and 5. Mice of each group were treated identically.
Mice of Group 1 were intraperitoneally injected with 60 mg/kg of GEM on days 1, 4, 7, and 10 of the study (i.e., Q3D×4) and were not further treated thereafter. […]
Mice of Group 5 were controls and were not administered GEM. They were intraperitoneally injected with saline on days 1, 4, 7, and 10 of the study (i.e., Q3D×4). Beginning on day 13 of the study, the mice were orally administered distilled, deionized water every other day (i.e., Q2D×32) through the end of the study.
The study was continued until day 76 and the body weight losses among the mice of the various Groups were observed. […] For Group 3, 6 of 8 mice were dead by day 10.
Values reflecting anti-tumor responses, as compared with vehicle treatment (T/C %, calculated as the ratio of average tumor volume in treatment group vs. average tumor volume in the control group {Group 5}, expressed as a percentage) on different study days are indicated in Table 1.

For series [4] the following is noted: intravenous infusion, human cancer patients; cited from earlier work.
In series [5] the test system is CFPAC-1 pancreatic cancer xenografts. Briefly: Xenografted mouse model of human pancreatic cancer cell line CFPAC-1. The series is classed as in vivo, BALB/c nude mice. To be noted: Group 1: GEM 120 mg/kg i.p. Q3D×23.
Method: Example 4 is a study in which the effects of GEM upon mice into which cells of human pancreatic cancer cell line CFPAC-1 were xenografted.
To prepare the xenografted mice used in the study, 1×10^6 human CFPAC-1 pancreatic cancer cells were transplanted subcutaneously on the right flank of 6 week old male BALB/c nude mice. Tumor growth was observed once a week and the tumor volume was measured as L×W^2/2 by caliper. Tumor development in the xenografted mice was then observed, and 48 such mice were selected for inclusion in the study when their tumor volume reached about 141 cubic millimeters. The mice were divided into 6 groups of 8 mice each for the study. The day on which mice were first dosed was designated “Day 0” of the study, and the study continued for 91 days.
Mice of Group 1 were intraperitoneally injected with 120 mg/kg of GEM on day 0 and every third day thereafter through day 66 (i.e., Q3D×23) and were not further treated thereafter.
Mice of Group 2 were intraperitoneally injected with 120 mg/kg of GEM on days 0, 3, 6, and 9 of the study (i.e., Q3D×4). Beginning on day 12 of the study, the mice were orally administered 10 mg/kg GEM in the GEMORAL composition (hereinafter “10 mg/kg GEMORAL”) every other day (i.e., Q2D×28) through day 66; the mice were not further treated thereafter.
Mice of Group 3 were intraperitoneally injected with 120 mg/kg of GEM on days 0, 3, 6, and 9 of the study (i.e., Q3D×4). Beginning on day 12 of the study, the mice were orally administered 3 mg/kg GEM in the GEMORAL composition (hereinafter “3 mg/kg GEMORAL”) every day (i.e., QD×55) through day 66; the mice were not further treated thereafter.
Mice of Group 4 were orally administered 3 mg/kg GEMORAL every day (i.e., QD×92), beginning on day 0 of the study and extending through the end of the study.
Mice of Group 5 were orally administered 10 mg/kg GEMORAL every other day (i.e., Q2D×46), beginning on day 0 of the study and extending through the end of the study.
Mice of Group 6 were controls and were not administered GEM. […]
Series [6] shares this test system. Briefly: 5FU injection followed by GEMORAL in CFPAC-1 xenografted mouse model. Type of series: in vivo, BALB/c nude mice. As to the method: Pancreatic cancer monotherapy using 5-fluorouracil (5FU) injection is known. […] We investigated oral metronomic GEM administration as a second-line treatment in 5FU-non-responsive pancreatic tumors using a xenograft model. To prepare the xenografted mice used in the study, 1×10^6 human CFPAC-1 pancreatic cancer cells were transplanted subcutaneously on the right flank of 6 week old male BALB/c nude mice. Tumor growth was observed once a week, tumor volume was measured as L×W^2/2 by caliper, and mice were selected for inclusion in the study when their tumor volume reached about 131 cubic millimeters. […] The day on which mice were first dosed was designated “Day 0” of the study, and the study continued for 112 days. Mice of Group 1 were orally administered 10 mg/kg GEMORAL every other day (i.e., Q2D×56), beginning on day 0 of the study and extending through the end of the study. […] Beginning on day 63 of the study, the mice were orally administered 10 mg/kg GEMORAL every other day (i.e., Q2D×25) through the end of the study. […] Beginning on day 21 of the study, the mice were orally administered 10 mg/kg GEMORAL every other day (i.e., Q2D×46) through the end of the study. […] They were intraperitoneally injected with saline on days 0, 3, 6, and 9 of the study (i.e., Q3D×4). […]

Where two headings read alike, the source gives them in different places.

Take `Nc1ccn([C@@H]2O[C@H](CO)[C@@H](O)C2(F)F)c(=O)n1` [GEM, gemcitabine]: the T/C – broadly, the ratio of treated to control – in series [1] (Day 12) was 54%; in series [1] (Day 37), 60%; in series [1] (Day 58) it was 93%; in series [1] (Day 76), 96%; in series [1] (Day 90) it was 82%; in series [3] (Day 14), 52%. In addition, the values for the T/C in series [3] (Day 42), in series [3] (Day 73) and in series [3] (Day 76) were 22%, 46% and 49%, respectively. In series [1], the “mean survival time (MST)” value stood at 69 days. Moreover, in series [1] (day 90, Kaplan-Maier), the survival rate is given as 50%. Besides, the “maximum tumor growth inhibition value” in series [1] (on day 27) was 47%. For the same compound, the “MTD (corresponding dose for a human patient)” value in series [2] (converted from 2,400 mg/m^2) is recorded as 3,893 mg/60 kg. The MTD is 65 mg/kg in series [2] (human, in vivo, converted from 2,400 mg/m^2, read-out: MTD (corresponding dose per body weight)) and 2,400 mg/m^2/week in series [4]. The “tumor growth after end of dosing” value in series [3] (after day 11) is “significant tumor growth after completing the scheduled dosing”. Moreover, in series [3] (by day 76), the “mice dead (died or tumor size >1000 cubic millimeters)” value is recorded as 4 of 8. In series [5], the “days at which at least some mice were tumor free” value fell in the range of 44 to 91 days. Also, the mice tumor free in series [5] (at day 91) was 6/8. In addition, the “maximum anti-tumor response, T/C” value in series [5] (on day 81) is 0%.

`O=c1[nH]cc(F)c(=O)[nH]1` [5FU, 5-fluorouracil]: the “anti-tumor response attributable to 5FU treatment” value is reported as “No significant anti-tumor response” in series [6] (Group 2: 5FU 20 mg/kg i.p. thrice weekly, first 9 weeks) and “No significant anti-tumor response” in series [6] (Group 3: 5FU 20 mg/kg i.p. thrice weekly, first 3 weeks).
